The target in this assay is p53 core domain (WT p53) (Homo sapiens, UniProt P04637). Kind of assay: intrinsic fluorescence quenching. In kind it is binding.
Chain of p53 core domain (WT p53) (P04637 94-312): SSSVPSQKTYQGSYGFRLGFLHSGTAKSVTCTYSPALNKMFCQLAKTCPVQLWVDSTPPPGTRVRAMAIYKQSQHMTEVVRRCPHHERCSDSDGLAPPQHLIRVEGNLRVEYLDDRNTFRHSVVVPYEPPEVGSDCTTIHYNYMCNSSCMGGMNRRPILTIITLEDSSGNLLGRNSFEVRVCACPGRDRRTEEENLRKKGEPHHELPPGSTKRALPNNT

Turning to `CC1(C)CC(NCC(=O)N2C/C(=C\c3ccc(C#N)cc3)C(=O)/C(=C/c3ccc(C#N)cc3)C2)C(C)(C)N1[O]` (stereo not shown) [AKT-100], binding was characterised by a dissociation constant (Kd) of 9.8 ± 0.1 µM.

The values above are taken from doi:10.1101/2025.10.06.680794v3 (biorxiv, 2026).
